From ChEMBL document CHEMBL4390697, “Ginnalin B induces differentiation markers and modulates the proliferation/differentiation balance via the upregulation of NOTCH1 in human epidermal keratinocytes” (Bioorg Med Chem, 2019)
Active and inactive are the calls of the source. No cut-off for these calls is given here.

Columns and labels:
[1] = Inhibition of keratin-10 expression in human PHK160b cells at 50 uM incubated for 48 hrs by quantitative RT-PCR analysis relative to untreated control; format: functional
[2] = (§1) Induction of keratin-10 expression in human PHK160b cells at 50 uM incubated for 48 hrs by quantitative RT-PCR analysis relative to untreated control; format: functional
[3] = species: Homo sapiens; assay: as §1; format: functional
[4] = Cytotoxicity against human PHK160b cells assessed as reduction in cell growth at 100 uM incubated up to 96 hrs by MTT assay; format: cell-based
[5] = Cytotoxicity against human PHK160b cells assessed as reduction in cell viability incubated for 48 hrs by LDH release assay; format: cell-based
[6] = Induction of apoptosis in human PHK160b cells assessed as induction of multiple fragmented segregated bodies at 100 uM incubated for 48 hrs Hoechst 33,342 staining based fluorescent microscopy; format: cell-based
[7] = Cell cycle arrest in human PHK160b cells assessed as accumulation at G2/M phase at 50 uM incubated for 48 hrs by propidium iodide staining-based flow cytometry; format: functional
[8] = Cell cycle arrest in human PHK160b cells assessed as accumulation at G0/G1 phase at 50 uM incubated for 48 hrs by propidium iodide staining-based flow cytometry; format: functional
[9] = species: Homo sapiens; assay: Induction of keratin-1 expression in human PHK160b cells incubated for 48 hrs by quantitative RT-PCR analysis relative to untreated control; format: functional, cell-based
[10] = Cell cycle arrest in human PHK160b cells assessed as increase in expression of p21 at 0 to 100 uM incubated for 72 hrs by RT-PCR method; format: functional
[11] = system: Zone of skin; assay: Induction of keratinocyte differentiation in human EPI-212 EpiDerm skin model assessed as increase in filaggrin expression at 100 uM incubated for 7 days by DAB based immunohistochemical staining analysis (Rvb= 20%); format: functional
[12] = species: Homo sapiens; assay: Cell cycle arrest in human PHK160b cells assessed as increase in expression of p21 incubated for 72 hrs by western blot method; format: functional, cell-based
[13] = Cell cycle arrest in human PHK160b cells assessed as accumulation at G2/M phase at 100 uM incubated for 48 hrs by propidium iodide staining-based flow cytometry; format: functional
[14] = system: Zone of skin; assay: Induction of keratinocyte differentiation in human EPI-212 EpiDerm skin model assessed as increase in keratin-10 expression at 100 uM incubated for 7 days by DAB based immunohistochemical staining analysis (Rvb= 35.8%); format: functional
[15] = Cytotoxicity against human PHK160b cells assessed as reduction in cell viability at 100 uM incubated for 24 hrs by MTT assay; format: cell-based
[16] = Cytotoxicity against human PHK160b cells assessed as reduction in cell viability at 10 to 1000 uM incubated for 48 hrs by LDH release assay; format: cell-based
[17] = Induction of keratin-1 expression in human PHK160b cells at 100 uM incubated for 48 hrs by quantitative RT-PCR analysis relative to untreated control; format: functional
[18] = Cytotoxicity against human PHK160b cells assessed as reduction in cell growth at 100 uM incubated for 24 to 96 hrs by MTT assay; format: cell-based
[19] = species: Homo sapiens; assay: Induction of filaggrin expression in human PHK160b cells incubated for 48 hrs by quantitative RT-PCR analysis relative to untreated control; format: functional, cell-based
[20] = Cell cycle arrest in human PHK160b cells assessed as increase in expression of NOTCH1 at 100 uM incubated for 72 hrs by RT-PCR method relative to control; format: functional
[21] = species: Homo sapiens; assay: Cell cycle arrest in human PHK160b cells assessed as decrease in expression of cyclin D1 incubated for 72 hrs by western blot method; format: functional, cell-based
[22] = species: Homo sapiens; assay: Induction of keratin-10 expression in human PHK160b cells incubated for 48 hrs by quantitative RT-PCR analysis relative to untreated control; format: functional, cell-based
[23] = Induction of keratin-10 expression in human PHK160b cells at 100 uM incubated for 48 hrs by quantitative RT-PCR analysis relative to untreated control; format: functional
[24] = Induction of filaggrin expression in human PHK160b cells at 100 uM incubated for 48 hrs by quantitative RT-PCR analysis relative to untreated control; format: functional
[25] = species: Homo sapiens; assay: Cell cycle arrest in human PHK160b cells assessed as increase in expression of NOTCH 1 at 50 to 100 uM incubated for 72 hrs by western blot method; format: functional, cell-based
[26] = species: Homo sapiens; assay: Cell cycle arrest in human PHK160b cells assessed as decrease in expression of cyclin E incubated for 72 hrs by western blot method; format: functional, cell-based
[27] = Cell cycle arrest in human PHK160b cells assessed as accumulation at G0/G1 phase at 100 uM incubated for 48 hrs by propidium iodide staining-based flow cytometry; format: functional

## O=C(OC[C@H]1OC[C@H](OC(=O)c2cc(O)c(O)c(O)c2)[C@@H](OC(=O)c2cc(O)c(O)c(O)c2)[C@@H]1OC(=O)c1cc(O)c(O)c(O)c1)c1cc(O)c(O)c(O)c1
[1]
  fold change (FC): 0.64

## O=C(OC[C@H]1OC[C@H](O)[C@@H](O)[C@@H]1OC(=O)c1cc(O)c(O)c(O)c1)c1cc(O)c(O)c(O)c1
[2]
  fold change (FC): 2.18

## COc1cc(C(=O)OC[C@H]2OC[C@H](O)[C@@H](O)[C@@H]2O)cc(OC)c1OC
[3]
  Activity: inactive

## O=C(OC[C@H]1OC[C@H](O)[C@@H](O)[C@@H]1O)c1ccccc1
[3]
  Activity: inactive

## O=C(O[C@H]1CO[C@H](CO)[C@@H](O)[C@@H]1O)c1cc(O)c(O)c(O)c1
[3]
  Activity: Active

## O=C(O[C@H]1[C@H](O)[C@@H](CO)OC[C@@H]1O)c1cc(O)c(O)c(O)c1
[3]
  Activity: Active

## O=C(O[C@H]1[C@H](O)[C@@H](O)CO[C@@H]1CO)c1cc(O)c(O)c(O)c1
[3]
  Activity: Active

## OC[C@H]1OC[C@H](O)[C@@H](O)[C@@H]1O [1,5-Anhydrosorbitol]
[4]
  Activity: Non-Toxic
[3]
  Activity: inactive

## COc1cc2c(c(OC)c1OC)-c1ccc(OC)c(=O)cc1[C@@H](NC(C)=O)CC2 [COLCHICINE]
[5]
  Activity: Dose-dependent effect
[6]
  Activity: Toxic
[7]
  Activity: 74.6%
[8]
  Activity: 18%

## O=C(OC[C@H]1OC[C@H](O)[C@@H](O)[C@@H]1O)c1cc(O)c(O)c(O)c1 [GINNALIN B]
[9]
  Activity: Dose-dependent effect
[10]
  fold change (FC): 1.4
[11]
  Activity: 56.6%
[12]
  Activity: Dose-dependent effect
[13]
  Activity: 20%
[14]
  Activity: 42.4%
[15]
  Activity: Non-Toxic
[16]
  Activity: Non-Toxic
[17]
  fold change (FC): 2.9
[18]
  Activity: Toxic
[19]
  Activity: Dose-dependent effect
[20]
  fold change (FC): 1.9
[21]
  Activity: Dose-dependent effect
[22]
  Activity: Dose-dependent effect
[6]
  Activity: Non-Toxic
[23]
  fold change (FC): 1.7
[24]
  fold change (FC): 5.2
[2]
  fold change (FC): 1.9
[25]
  Activity: Active
[26]
  Activity: Dose-dependent effect
[27]
  Activity: 66%

## O=C(O[C@H]1[C@H](O)[C@@H](OC(=O)c2cc(O)c(O)c(O)c2)CO[C@@H]1CO)c1cc(O)c(O)c(O)c1 [MAPLEXIN D]
[2]
  fold change (FC): 2.2
